Results reported in paper PMC11808136, “Screening and identification of host signaling pathways for alleviating influenza-induced production of pro-inflammatory cytokines, IP-10, IL-8, and MCP-1, using a U937 cell-based influenza model” (Frontiers in Microbiology, 2025).
Like-named read-outs stand apart in the source and are kept apart here.

Assays:
[1] = tested on: STAT1 phosphorylation (p-STAT1); type: cell-based, Human
p38 = p38 (Homo sapiens, UniProt Q16539); test: Cell-free kinase activity assay, p38; type: biochemical; settings: for p38 kinase activity in vitro: cell-free; for IC50: p38 kinases in vitro
Sequence of p38 (Q16539 whole entry): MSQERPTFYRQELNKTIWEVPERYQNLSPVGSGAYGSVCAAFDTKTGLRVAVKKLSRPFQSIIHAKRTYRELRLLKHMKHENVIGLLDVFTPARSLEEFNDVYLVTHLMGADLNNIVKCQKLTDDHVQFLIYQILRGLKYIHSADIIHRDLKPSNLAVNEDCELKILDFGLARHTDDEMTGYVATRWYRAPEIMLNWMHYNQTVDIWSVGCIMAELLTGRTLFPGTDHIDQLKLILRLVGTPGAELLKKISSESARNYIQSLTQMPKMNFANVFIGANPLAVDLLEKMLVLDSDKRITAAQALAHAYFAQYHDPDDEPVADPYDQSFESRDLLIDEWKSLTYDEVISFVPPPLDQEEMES

in vitro = settings: human
JAK1 = JAK1 (Homo sapiens, UniProt P23458); test: Cell-free kinase activity assay, JAK1; settings: for JAK1 activity: cell-free kinase assay
Sequence of JAK1 (P23458 whole entry): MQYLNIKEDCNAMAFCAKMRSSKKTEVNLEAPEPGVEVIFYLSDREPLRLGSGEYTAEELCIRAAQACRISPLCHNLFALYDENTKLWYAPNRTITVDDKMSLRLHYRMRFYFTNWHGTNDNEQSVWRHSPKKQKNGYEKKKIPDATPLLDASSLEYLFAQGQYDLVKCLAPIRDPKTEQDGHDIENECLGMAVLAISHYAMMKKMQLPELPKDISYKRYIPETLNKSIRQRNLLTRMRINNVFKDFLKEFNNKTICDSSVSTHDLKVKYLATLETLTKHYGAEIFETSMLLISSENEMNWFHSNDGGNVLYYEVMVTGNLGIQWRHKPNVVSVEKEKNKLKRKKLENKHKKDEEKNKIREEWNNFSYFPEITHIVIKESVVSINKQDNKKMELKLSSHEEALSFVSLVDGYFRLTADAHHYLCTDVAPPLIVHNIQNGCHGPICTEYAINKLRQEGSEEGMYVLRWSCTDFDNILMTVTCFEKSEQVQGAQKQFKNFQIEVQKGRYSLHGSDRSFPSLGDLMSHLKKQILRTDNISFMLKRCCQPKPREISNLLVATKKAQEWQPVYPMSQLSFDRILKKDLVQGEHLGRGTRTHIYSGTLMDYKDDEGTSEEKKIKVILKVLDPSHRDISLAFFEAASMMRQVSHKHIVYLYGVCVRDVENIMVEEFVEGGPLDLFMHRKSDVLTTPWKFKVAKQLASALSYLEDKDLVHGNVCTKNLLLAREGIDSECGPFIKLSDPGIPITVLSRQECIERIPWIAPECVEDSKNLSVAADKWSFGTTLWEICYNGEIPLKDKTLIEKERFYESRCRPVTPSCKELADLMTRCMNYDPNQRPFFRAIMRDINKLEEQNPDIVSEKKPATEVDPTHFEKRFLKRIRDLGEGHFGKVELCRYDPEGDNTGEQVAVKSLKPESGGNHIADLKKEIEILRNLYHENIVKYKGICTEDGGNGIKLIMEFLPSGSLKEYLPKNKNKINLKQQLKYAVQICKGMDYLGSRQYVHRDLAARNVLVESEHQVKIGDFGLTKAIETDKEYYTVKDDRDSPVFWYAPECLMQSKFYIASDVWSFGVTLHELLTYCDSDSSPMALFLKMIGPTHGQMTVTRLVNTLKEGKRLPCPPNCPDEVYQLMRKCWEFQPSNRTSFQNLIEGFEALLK

[2] = tested on: IL-8 production in influenza virus-infected U937 cells (H1N1); test: cells; type: cell-based, Human; settings: for EC50: read-out: EC50 IL-8
[3] = tested on: phosphorylation of p38 (p-p38); test: Western blot of phosphorylated p38 in influenza-infected U937 cells; type: cell-based, Human; settings: for phosphorylation of p38: 24 h post-infection, western blot, cellular model
Experimental: (§1) Figure 6 TKIs repress cytokine production by suppressing the p38 pathway. […] Cells were lysed 24 h post-infection, and the levels of phosphorylated p38 and ERK (p-p38 and p-ERK) and total p38 and ERK were assessed by western blot. A quantification of phosphorylated p38 levels for each drug treatment was included in the right panel of each figure.
(§2) Cells were homogenized in RIPA lysis buffer containing a 1% protease inhibitor cocktail (Roche) to extract total protein. Equal amounts of protein homogenates were separated by SDS-PAGE (Bio-Rad) and transferred onto polyvinylidene difluoride membranes (pore size […]; Bio-Rad). The membranes were then blotted with monoclonal antibodies against GAPDH (1:1000, ZSGB-BIO), p38, phosphor-p38, ERK, phospho-ERK, STAT1, phosphor-STAT1 (1:1000; Cell Signaling Technology), STAT3, and phosphor-STAT3 (1:1000; Cell Signaling Technology), respectively. Protein levels were detected with horseradish peroxidase-tagged secondary antibodies and enhanced chemiluminescence western blot reagents (Advansta), followed by visualization using an enhanced chemiluminescence system (AlphaEase FluorChem System, Alpha Innotech Corp.). Bands were quantified using ImageJ (Ver. 1.46; NIH, Bethesda, MD).

[4] = tested on: MCP-1 production in influenza virus-infected U937 cells (H3N2); test: cells; type: cell-based, Human
[5] = tested on: IL-8 production in influenza virus-infected U937 cells (H7N8); test: cells; type: cell-based, Human
JAK2 = target: T1, JAK2 (Homo sapiens, UniProt O60674); test: Cell-free kinase activity assay, JAK2; type: biochemical
T1 construct: purchased KinaseProfiler (Eurofin, Brussels, Belgium)
T1 sequence (O60674 whole entry): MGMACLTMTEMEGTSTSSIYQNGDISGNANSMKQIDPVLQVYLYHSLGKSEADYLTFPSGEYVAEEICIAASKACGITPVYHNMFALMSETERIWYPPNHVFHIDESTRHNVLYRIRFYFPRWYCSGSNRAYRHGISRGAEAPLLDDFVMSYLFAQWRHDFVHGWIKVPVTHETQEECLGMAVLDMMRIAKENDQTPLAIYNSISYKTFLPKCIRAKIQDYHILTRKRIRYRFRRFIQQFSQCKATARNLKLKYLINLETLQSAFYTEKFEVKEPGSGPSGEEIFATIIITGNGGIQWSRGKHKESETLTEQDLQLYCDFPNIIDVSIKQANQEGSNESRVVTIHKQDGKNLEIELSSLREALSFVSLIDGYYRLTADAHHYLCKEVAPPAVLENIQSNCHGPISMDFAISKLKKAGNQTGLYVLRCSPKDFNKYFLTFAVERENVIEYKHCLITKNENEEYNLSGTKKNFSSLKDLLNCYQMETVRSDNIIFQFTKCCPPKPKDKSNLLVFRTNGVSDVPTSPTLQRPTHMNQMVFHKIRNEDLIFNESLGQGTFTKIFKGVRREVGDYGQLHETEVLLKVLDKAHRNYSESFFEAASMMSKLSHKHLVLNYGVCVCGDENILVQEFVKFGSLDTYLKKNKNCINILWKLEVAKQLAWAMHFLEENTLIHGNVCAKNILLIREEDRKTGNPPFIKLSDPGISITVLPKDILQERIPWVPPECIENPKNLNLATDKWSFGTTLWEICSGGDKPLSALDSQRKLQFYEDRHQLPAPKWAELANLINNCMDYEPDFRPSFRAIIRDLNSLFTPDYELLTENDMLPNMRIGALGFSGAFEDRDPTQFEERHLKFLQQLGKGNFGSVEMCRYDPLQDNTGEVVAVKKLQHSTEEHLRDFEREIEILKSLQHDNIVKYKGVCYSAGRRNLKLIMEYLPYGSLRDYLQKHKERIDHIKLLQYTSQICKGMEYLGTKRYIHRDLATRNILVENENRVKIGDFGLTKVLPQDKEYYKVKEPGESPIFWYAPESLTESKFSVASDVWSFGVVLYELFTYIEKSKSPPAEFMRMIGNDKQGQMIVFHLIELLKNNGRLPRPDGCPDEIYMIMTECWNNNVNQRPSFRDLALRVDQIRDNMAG

[6] = tested on: IL-8 production in influenza virus-infected U937 cells (H3N2); test: cells; type: cell-based, Human
[7] = tested on: IP-10 production in influenza virus-infected U937 cells (H7N8); test: cells; type: cell-based, Human
[8] = tested on: IP-10 production in influenza virus-infected U937 cells (H1N1); test: cells; type: cell-based
[9] = tested on: MCP-1 production in influenza virus-infected U937 cells (H1N1); test: cells; type: cell-based
[10] = tested on: IP-10 production in influenza virus-infected U937 cells (H3N2); test: cells; type: cell-based, Human
[11] = tested on: MCP-1 production in influenza virus-infected U937 cells (H7N8); test: cells; type: cell-based, Human
[12] = tested on: ERK phosphorylation (p-ERK); test: Western blot of phosphorylated ERK in influenza-infected U937 cells; type: cell-based, Human
Experimental: Figure 5 Raf/MEK/ERK and p38 signal pathways are involved in the regulation of cytokines in U937 cells. (A–C) Determination of inhibition rates on IL-8, IP-10, and MCP-1 by each compound in the MAPK group and the distribution of targets between subgroups. U937 cells were infected with influenza A/PuertoRico/8/1934 virus (MOI = 0.1) in the presence of 10 μM of each inhibitor and then incubated at 37°C for 48 h. The distribution of the targets of all the inhibitors in the MAPK group was then analyzed and categorized into subgroups. […] The supernatants were harvested 48 h post-infection, and the levels of IL-8, MCP-1, and IP-10 were measured by AlphaLISA. (E) The cells were treated as in (C) except being lysed 24 h post-infection, and the levels of phosphorylated STAT1, p38, ERK (p-STAT1, p-p38, p-ERK), total STAT1, p38, ERK, and viral protein HA were assessed by western blot. (F) A quantitative analysis of the relative levels of the phosphorylated STAT1, p38, ERK (p-STAT1, p-p38, p-ERK) in (E). The data are representative of at least three independent experiments. n.s. no significance; *p < 0.05; **p < 0.01; ***p < 0.001.
as §1
as §2, with “The membranes were then blotted with monoclonal antibodies against GAPDH (1:1000, ZSGB-BIO), p38, phosphor-p38, ERK, phospho-ERK, STAT1, phosphor-STAT1 (1:1000; Cell Signaling Technology), STAT3, and phosphor-STAT3 (1:1000; Cell Signaling Technology), respectively.” left out

[13] = CC50, secondary screen, Supplemental Table 1
[14] = Homo sapiens, U-937, secondary screen, Supplemental Table 1
[15] = Homo sapiens, U-937, read-out: IC50 p-p38
[16] = Homo sapiens, U-937, read-out: EC50 IL-8
[17] = Homo sapiens, U-937, read-out: EC50 IP-10
[18] = Homo sapiens, U-937, read-out: IC50 IP-10
[19] = Homo sapiens, U-937, read-out: EC50 MCP-1
[20] = U937 cells, Table 1 section H1N1

SMILES	STAT1 phosphorylation levels [1]	p38 kinase activity in vitro (p38)	IC50 (p38) [nM]	CC50 at 48 h (in vitro) [nM]	CC50 (in vitro; [13]) [nM]	IC50 (JAK1) [nM]	JAK1 activity (JAK1)	IC50 ([2]; Homo sapiens, U-937) [nM]	EC50 [2, 14] [nM]	EC50 ([2]; Homo sapiens, U-937) [nM]	phosphorylation of p38 [3]	IC50 [3, 15] [nM]	EC50 ([4]; Homo sapiens, U-937) [nM]	EC50 [5, 16] [nM]	EC50 ([6]; Homo sapiens, U-937) [nM]	EC50 [7, 17] [nM]	EC50 [8, 17] [nM]	IC50 [8, 18] [nM]	EC50 ([10]; Homo sapiens, U-937) [nM]	EC50 [11, 19] [nM]	also measured
Cc1cc(Nc2nc(N[C@@H](C)c3ncc(F)cn3)ncc2Cl)n[nH]1 [AZD1480]	significantly reduced	failed to inhibit	> 100000	100000	13500	430	inhibited	7500	110	7690	suppress	5300	478	215	7140	57	100	7110	17	714	JAK2 activity (JAK2; cell-free kinase assay): inhibited; EC50 ([8]; Homo sapiens, U-937; read-out: EC50 IP-10): 7690 nM; EC50 ([9]; Homo sapiens, U-937, read-out: EC50 MCP-1, U937 cells infected with H1N1): 6250 nM; EC50 ([9]; Homo sapiens, U-937, read-out: EC50 MCP-1, secondary screen, Supplemental Table 1): 30 nM; IC50 ([9]; Homo sapiens, U-937, read-out: IC50 MCP-1): 6300 nM; maximum non-toxic concentration (U937 cells; human): 50 µM
CCS(=O)(=O)N1CC(CC#N)(n2cc(-c3ncnc4[nH]ccc34)cn2)C1 [Baricitinib]		failed to inhibit	> 1000	5380							suppress										CC50 (in vitro; CC50): > 100000 nM; JAK2 activity (JAK2): inhibited
Cc1nc(Nc2ncc(C(=O)Nc3c(C)cccc3Cl)s2)cc(N2CCN(CCO)CC2)n1 [Dasatinib]	significantly reduced			> 100000				1900	2060	1890		1000	18	135	730	14			17	44	CC50 (in vitro): > 100000 nM; EC50 ([8]; Homo sapiens, U-937, U937 cells infected with H1N1; read-out: EC50 IP-10): 1160 nM; EC50 ([8]; Homo sapiens, U-937, secondary screen, Supplemental Table 1; read-out: EC50 IP-10): 1300 nM; EC50 ([9]; Homo sapiens, U-937, U937 cells infected with H1N1, read-out: EC50 MCP-1): 190 nM; EC50 ([9]; Homo sapiens, U-937, secondary screen, Supplemental Table 1, read-out: EC50 MCP-1): 140 nM; IC50 ([9]; Homo sapiens, U-937, production of MCP-1 in U937 cells infected with influenza virus, Table 4, read-out: IC50 MCP-1): 190 nM; CC50 (U937 cells; [20]): > 100000 nM; maximum non-toxic concentration (U937 cells; human): 1 µM
CC[C@@](C)(Nc1ccnc(-c2c[nH]c3ncccc23)n1)C(=O)NCC(F)(F)F [Decernotinib]					50000	13	inhibited		20								100	100			IC50 (JAK2): 90 nM; JAK2 activity (JAK2): inhibited; EC50 [9, 19]: 50 nM
Cc1ccc(Nc2ncc3c(n2)N(C)C(=O)N(c2cc(NC(=O)c4cccc(C(F)(F)F)c4)ccc2C)C3)cn1 [GNF-7]	significantly reduced																				phosphorylation level of ERK [12]: promoted; IC50 [2]: < 20 nM; EC50 [2]: 19 nM; EC50 ([2]; secondary screen, Supplemental Table 1): < 5 nM; IC50 ([3]; phosphorylation of p38, western blot, Table 4, read-out: IC50 p-p38): 10 nM; EC50 [4]: 14 nM; EC50 ([5]; read-out: EC50 IL-8): 14 nM; EC50 [6]: 27 nM; EC50 ([7]; read-out: EC50 IP-10): 5 nM; EC50 ([8]; U937 cells infected with H1N1; read-out: EC50 IP-10): 71 nM; EC50 ([8]; secondary screen, Supplemental Table 1; read-out: EC50 IP-10): 20 nM; EC50 ([9]; U937 cells infected with H1N1, read-out: EC50 MCP-1): 18 nM; IC50 ([9]; production of MCP-1 in U937 cells infected with influenza virus, Table 4, read-out: IC50 MCP-1): < 20 nM; EC50 ([9]; secondary screen, Supplemental Table 1, read-out: EC50 MCP-1): 10 nM; EC50 [10]: 1 nM; EC50 ([11]; read-out: EC50 MCP-1): 109 nM; CC50 (U937 cells): 13600 nM; maximum non-toxic concentration (U937 cells): 1 µM; CC50 (U937 cells; [20]): 13600 nM; CC50 (U937 cells; U937 cells, Table 1 section H3N2): 13600 nM
